In US5229109A, “Low toxicity interleukin-2 analogues for use in immunotherapy” (priority 1992, dated 1993):

What was measured:
IL-2 receptor p75 = biological target: T1, IL-2 receptor p75 (Homo sapiens, UniProt P14784); assay: IL-2 specific binding assay, intermediate affinity receptor
T1 construct: Each assay contained approximately 6×10^5 cells; endogenous in cells
T1 sequence (P14784 27-551): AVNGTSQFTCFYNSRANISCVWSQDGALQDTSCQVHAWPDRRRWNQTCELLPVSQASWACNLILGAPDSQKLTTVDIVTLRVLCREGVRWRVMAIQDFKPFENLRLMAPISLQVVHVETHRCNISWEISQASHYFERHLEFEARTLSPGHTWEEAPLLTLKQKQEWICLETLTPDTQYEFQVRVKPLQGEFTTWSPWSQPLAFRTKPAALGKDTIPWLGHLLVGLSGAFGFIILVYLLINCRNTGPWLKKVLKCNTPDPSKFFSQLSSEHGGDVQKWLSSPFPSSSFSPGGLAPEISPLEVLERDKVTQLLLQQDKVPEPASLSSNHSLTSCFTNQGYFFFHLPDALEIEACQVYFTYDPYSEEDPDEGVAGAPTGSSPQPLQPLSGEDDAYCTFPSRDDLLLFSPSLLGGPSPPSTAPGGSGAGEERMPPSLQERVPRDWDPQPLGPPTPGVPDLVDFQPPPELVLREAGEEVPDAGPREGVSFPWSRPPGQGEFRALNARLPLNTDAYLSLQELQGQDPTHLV
T1 sequence (P31785 23-369 partner): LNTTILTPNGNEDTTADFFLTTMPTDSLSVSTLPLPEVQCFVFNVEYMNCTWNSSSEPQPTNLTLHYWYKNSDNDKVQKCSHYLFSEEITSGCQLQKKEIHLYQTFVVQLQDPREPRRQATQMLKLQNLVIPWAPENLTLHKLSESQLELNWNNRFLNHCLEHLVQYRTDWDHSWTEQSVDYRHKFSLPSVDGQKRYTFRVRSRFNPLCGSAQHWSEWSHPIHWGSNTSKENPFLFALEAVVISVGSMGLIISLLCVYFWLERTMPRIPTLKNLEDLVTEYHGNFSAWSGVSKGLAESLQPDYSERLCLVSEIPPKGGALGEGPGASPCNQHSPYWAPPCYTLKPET
Protocol: The cells were then incubated for 1 hour at 37° C. and the washing procedure was repeated three times. […] Nonspecific binding was determined by inclusion of 50 nM unlabeled human rIL-2 in the assay. Incubations were carried out in duplicate or triplicate for 20 minutes at 37° C.

[1] = biological target: T2, intermediate receptor p75 (Homo sapiens, UniProt P14784); conditions: Sauve et al., 1991; cited from earlier work
T2 sequence (P14784 27-551): T1 sequence (P14784 27-551)
T2 sequence (P31785 23-369 partner): T1 sequence (P31785 23-369 partner)

[2] = biological target: T3, low affinity receptor p55 (Homo sapiens, UniProt P01589); conditions: Sauve et al., 1991; cited from earlier work
T3 sequence (P01589 22-272): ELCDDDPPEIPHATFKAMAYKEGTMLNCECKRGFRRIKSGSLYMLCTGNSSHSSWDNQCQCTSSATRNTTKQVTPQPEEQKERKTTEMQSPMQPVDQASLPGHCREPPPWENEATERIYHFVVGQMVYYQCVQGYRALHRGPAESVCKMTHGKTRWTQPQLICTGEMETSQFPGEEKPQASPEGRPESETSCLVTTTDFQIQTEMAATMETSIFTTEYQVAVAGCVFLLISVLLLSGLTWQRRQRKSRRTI

Daudi targets = assay: LAK generation, 4 hour 51Cr release cytotoxicity assay; format: cell-based, human; conditions: 100:1 effector:target ratio; 0.5 nM native IL-2 or 1 nM mutants
Protocol: The abilities of optimal concentrations of IL-2 and the analogues to stimulate peripheral blood mononuclear cells to generate lymphokine activated killing (LAK) in vitro were next compared.
(§1) Fresh peripheral blood mononuclear cells (PBMC) obtained from leukopharesis of normal human donors were isolated over a Ficoll-Hypaque gradient. […] Non-adherent cells were tested for cytotoxicity against Daudi targets by a 4 hour ^51 Cr release assay, with specific lysis being presented as the mean of triplicate values. Cell-free supernatants from 3 day PBMC cultures were analyzed by ELISA for cytokine content.

[3] = test system: IL-2 receptor p55 on PBMC; assay: FACS analysis of p55 expression on cultured PBMC; format: cell-based, human; conditions: cultures stimulated for 72 hours
Protocol: Cultured PBMC were washed with PBS, 1% bovine serum albumin (BSA), and 0.1% sodium azide. To approximately one million cells, FITC-labelled monoclonal antibody against IL-2 receptor p55 or a non-specific control mouse IgG (Becton-Dickinson) was added. Following incubation for 30 minutes, the cells were washed twice using a Sorvall cell washer 2L, then fixed in PBS and 1% paraformaldehyde. The cells were then analyzed on Becton-Dickinson FACScan and results were presented as per cent of gated cells positive for p55 after subtraction of non-specific background fluorescence.

[4] = test system: peripheral blood mononuclear cells (IL-1β secretion); assay: IL-1β secretion by PBMC, ELISA of LAK culture supernatants; format: cell-based, human; conditions: for IL-1β secretion decreased: maximal decrease vs native IL-2, supernatants at 24 hour intervals up to 7 days
Protocol: (§2) The abilities of the same concentrations of IL-2 and the analogues to stimulate peripheral blood mononuclear cells to secrete IL-1β and TNF-α in vitro were first compared. At 24 hour intervals up to 7 days, the LAK culture supernatants from the above-described experiment were collected and tested for IL-1β and TNF-α content using ELISA methodology. Commercially available ELISA kits were purchased from R & D Systems (TNF-α and TNF-β ), Immunotech (IL-1α and IL-1β), and Endogen (IFN-γ). The ELISAs were performed according to the protocols supplied by the manufacturer.
as §1

[5] = test system: peripheral blood mononuclear cells (TNF-α secretion); assay: TNF-α secretion by PBMC, ELISA of LAK culture supernatants; format: cell-based, human; conditions: for TNF-α decreased: maximal decrease vs native IL-2, supernatants at 24 hour intervals up to 7 days
Protocol: as §2, §1

[6] = all time points, p<0.05, 3-way ANOVA

Row | Substance | ability to bind IL-2 receptor p75 (IL-2 receptor p75) | affinity for the intermediate receptor p75 [1] | binding to the low affinity receptor p55 [2] | % maximal specific lysis (Daudi targets) [%] | percentage of cells expressing p55 [3] [%] | percentage of cells expressing p55 doubled [3] | IL-1β compared to that produced in response to native IL-2 [4, 6] | IL-1β secretion decreased [4] | TNF-α compared to that produced in response to native IL-2 [5, 6] | TNF-α decreased [5] [%]
1 | F42K: recombinant human IL-2 analogue, Phenylalanine (F) at position 42→Lysine (K) | maintain their ability to bind | maintained their affinity | could no longer bind | 54 | 30 | doubled | significantly decreased | up to 43% | significantly decreased | ≤ 77
2 | R38A | maintain their ability to bind | maintained their affinity | could no longer bind | 55 |  |  |  | ≤ 28% |  | ≤ 66
